Data published in patent EP0951284B1, “[…] DERIVATIVES” (priority 1996, dated 1998).
Counter-ions that a name gives are not always drawn. Like-named read-outs stand apart in the source and are kept apart here.

Tests used:
whole brain AChE = molecular target: T1, whole brain AChE (Mus musculus, UniProt P21836); experiment: Ex vivo measurement of brain AChE inhibition after sub-cutaneous administration; type: in vivo, mice; conditions: for ED50: sc, sub-cutaneous, mouse whole brain, at peak of activity, read-out: AChE Inhibition Ex vivo ED50 (AC)
T1 construct: the brains rapidly removed (minus cerebellum), weighed and homogenized in 0.1M phosphate buffer pH 8.0; from tissue; host or cells: mouse brain (minus cerebellum) homogenate supernatant
T1 sequence (P21836 32-614): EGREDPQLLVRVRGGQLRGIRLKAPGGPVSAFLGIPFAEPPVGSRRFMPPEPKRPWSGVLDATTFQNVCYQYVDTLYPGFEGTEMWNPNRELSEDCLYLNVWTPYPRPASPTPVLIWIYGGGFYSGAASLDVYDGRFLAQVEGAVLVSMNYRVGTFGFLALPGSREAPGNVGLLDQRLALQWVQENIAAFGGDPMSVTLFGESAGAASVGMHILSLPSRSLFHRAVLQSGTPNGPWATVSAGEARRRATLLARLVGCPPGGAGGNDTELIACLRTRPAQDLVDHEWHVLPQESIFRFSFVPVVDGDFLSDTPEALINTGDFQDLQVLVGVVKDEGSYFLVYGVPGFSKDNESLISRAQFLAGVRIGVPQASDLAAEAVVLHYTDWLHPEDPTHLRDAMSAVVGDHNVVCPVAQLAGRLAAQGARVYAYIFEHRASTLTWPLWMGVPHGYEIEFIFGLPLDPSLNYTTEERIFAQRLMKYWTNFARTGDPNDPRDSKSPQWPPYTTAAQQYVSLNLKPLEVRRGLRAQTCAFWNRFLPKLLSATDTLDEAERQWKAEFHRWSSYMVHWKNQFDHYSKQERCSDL
Protocol: Test drugs or saline were administered sub-cutaneously to male mice (Sabra strain, 28-35g). At least 4-5 mice were used per dose and a minimum of 3 doses per drug were tested. The mice were sacrificed 15, 30, 60, 70, 90, 120 or 180 minutes after drug administration, the brains rapidly removed (minus cerebellum), weighed and homogenized in 0.1M phosphate buffer pH 8.0, containing Triton (1mg/100g tissue) and centrifuged to remove cell debris. Aliquots (25 µl) of the supernatant were then incubated with acetylthiocholine and DTNB. AChE activity measured as described above. The % inhibition of whole brain AChE by each dose of drug was calculated by comparison with enzyme activity from 3 saline treated control mice run at the same time.

[1] = molecular target: T2, Human erythrocyte acetylcholinesterase (Homo sapiens, UniProt P22303); experiment: In vitro measurement of acetylcholinesterase (AChE) inhibition (Ellman method); type: biochemical; conditions: at time of peak activity, incubation 15 to 60 minutes at 37°C
T2 construct: Human erythrocyte acetylcholinesterase (type XIII, Sigma Israel); purchased Sigma Israel type XIII; host or cells: human erythrocytes
Protocol: Human erythrocyte acetylcholinesterase (type XIII, Sigma Israel), was prepared in a stock solution of 1U/ml, containing Triton (1%) and bovine serum albumin (0.05%) in phosphate buffer (pH 8). The enzyme (0.05U) was incubated with 3-5 different concentrations of test compound (in triplicate) for periods of from 15 to 60 minutes at 37°C. […] The percentage inhibition of AChE by each concentration of drug is calculated by comparison with that of enzyme in the absence of drug.

[2] = Acute toxicity in mice (sub-cutaneous, lethality within 6 hours); conditions: mouse, in vivo, sc; for selectivity ratio: LD50 divided by ED50 (acetylcholine esterase ex vivo), read-out: Therapeutic Ratio (LD/AC); for LD50 at 6 h: sub-cutaneous, mice, within 6 hours
Protocol: Drugs were administered sub-cutaneously in at least 3 doses, to a minimum of 10 mice per dose. […] Therapeutic Ratio was calculated as LD50 divided by ED50(acetylcholine esterase ex vivo).

MAO-A [3] = molecular target: T3, MAO-A (Rattus norvegicus, UniProt P21396); experiment: Inhibition of MAO activity in vitro, rat brain homogenate, 5-HT substrate
T3 sequence (P21396 1-526): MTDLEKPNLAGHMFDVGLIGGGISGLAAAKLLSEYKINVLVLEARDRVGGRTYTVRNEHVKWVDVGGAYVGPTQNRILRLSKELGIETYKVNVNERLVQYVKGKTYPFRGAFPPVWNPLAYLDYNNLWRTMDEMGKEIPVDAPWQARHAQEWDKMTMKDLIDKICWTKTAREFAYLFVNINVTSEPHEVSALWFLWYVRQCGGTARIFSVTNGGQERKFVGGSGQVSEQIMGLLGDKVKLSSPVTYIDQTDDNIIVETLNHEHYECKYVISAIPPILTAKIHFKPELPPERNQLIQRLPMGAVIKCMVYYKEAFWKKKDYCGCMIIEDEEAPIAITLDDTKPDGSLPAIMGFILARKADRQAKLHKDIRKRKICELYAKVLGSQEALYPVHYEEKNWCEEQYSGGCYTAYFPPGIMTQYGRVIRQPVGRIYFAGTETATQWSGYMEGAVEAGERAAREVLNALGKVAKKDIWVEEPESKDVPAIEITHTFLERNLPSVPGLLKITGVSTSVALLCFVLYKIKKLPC
Protocol: The MAO enzyme source was a homogenate of rat brain in 0.3M sucrose, which was centrifuged at 600G for 15 minutes. The supernatant was diluted appropriately in 0.05M phosphate buffer, and pre-incubated with serial dilutions of test compounds for 20 minutes at 37°C. ^14C-Labeled substrates (2-phenylethylamine, hereinafter PEA; 5-hydroxytryptamine, hereinafter 5-HT) were then added, and the incubation continued for a further 20 minutes (PEA), or 30-45 minutes (5-HT). Substrate concentrations used were 50µM (PEA) and 1mM (5-HT). In the case of PEA, enzyme concentration was chosen so that not more than 10% of the substrate was metabolized during the course of the reaction. The deaminated products were extracted into toluene-ethyl acetate (1:1, v/v) containing 0.6% (w/v) 2,5-diphenyloxazole prior to determination by liquid scintillation counting. Radioactivity in the eluate indicates the production of neutral and acidic metabolites formed as a result of MAO activity. Activity of MAO in the sample was expressed as a percentage of control activity in the absence of inhibitors after subtraction of appropriate blank values The activity determined using PEA as substrate is referred to as MAO-B, and that determined using 5-HT as MAO-A.

MAO-A [4] = experiment: Inhibition of MAO activity ex vivo (brain tissue), 5-HT substrate; type: in vivo, mice; conditions: mouse brain tissue
Protocol: (§1) Male Sabra mice, weighing 45-50g were injected with test compound solutions (prepared in 0.9% saline). Each dose was administered to two or three mice. The mice were sacrificed two hours after drug administration or at a time corresponding to the peak AChE inhibition time (see Table 6). The brain and liver were rapidly dissected and stored in appropriate vials on ice. The tissues were weighed, diluted to 1/20 in sucrose 0.3M and stored at -20°C before performance of the MAO assay described above. The results given in Table 6 relate to measurements made on brain tissue only.

MAO-B = experiment: Inhibition of MAO activity ex vivo (brain tissue), PEA substrate; type: in vivo, mice; conditions: mouse brain tissue
Protocol: as §1

mice = experiment: Survival time of mice in hypobaric hypoxic episode; type: in vivo
Description: The model is based on that described in Nakanishi, M. et al. Life Sci. (1973) 13: 467; Oshiro, et al., J. Med. Chem. (1991) 34: 2004-2013; and US Patent 4,788,130.
A 12 liter desiccator (desiccator A) and a 2.5 liter desiccator (desiccator B) were separately connected to a vacuum pump. Desiccator B was disconnected and allowed to equilibrate with room air whilst desiccator A was evacuated to a pressure of 100mmHg. Four male ICR albino mice (22-28g) were placed in desiccator B. Desiccator B was then closed to room air and connected to desiccator A. The pressure inside desiccator B was monitored using a mercury manometer and at the point the pressure in desiccator B reached 200mmHg (usually within 14 seconds), the two desiccators were disconnected from the vacuum pump and the pump switched off. The survival time from the moment of induction of hypoxia to the time of cessation of respiration was recorded. for each mouse for a maximum of 15 minutes after which time room air was reintroduced to desiccator B. Survivors were monitored for signs of lethargy or vitality.
Effect of drug treatment was assessed as the percent of the survival time of the drug treated group with respect to the saline injected or vehicle injected control group. Control groups were run twice, before and after each experimental group and consisted of 8 mice in groups of 4 mice to ensure a constant residual volume of oxygen in all tests. The effect of each dose of test drug was determined in duplicate i.e. two groups of 4 mice.
Positive reference drugs were sodium pentobarbital at a dose of 40 mg/kg, and diazepam 10 mg/kg given 0.5h prior to hypoxia, physostigmine 0.2 and 0.4 mg/kg and neostigmine 0.2 mg/kg given sc 30 min before hypoxia. Methyl atropine 1 mg/kg was given sc. 10 min. before physostigmine.
The volume of injection was 0.2-0.3 mL per mouse (10 mL/kg). The initial dose was about one third of the reported LD50 for acetylcholine esterase inhibition. If no protection could be obtained, the dose was further increased to the nearest non-toxic dose. In case of protection, the dose was further reduced in an attempt to locate the "protective" dose range.

T2 sequence (P22303 32-617 isoform P22303-2 limits assumed): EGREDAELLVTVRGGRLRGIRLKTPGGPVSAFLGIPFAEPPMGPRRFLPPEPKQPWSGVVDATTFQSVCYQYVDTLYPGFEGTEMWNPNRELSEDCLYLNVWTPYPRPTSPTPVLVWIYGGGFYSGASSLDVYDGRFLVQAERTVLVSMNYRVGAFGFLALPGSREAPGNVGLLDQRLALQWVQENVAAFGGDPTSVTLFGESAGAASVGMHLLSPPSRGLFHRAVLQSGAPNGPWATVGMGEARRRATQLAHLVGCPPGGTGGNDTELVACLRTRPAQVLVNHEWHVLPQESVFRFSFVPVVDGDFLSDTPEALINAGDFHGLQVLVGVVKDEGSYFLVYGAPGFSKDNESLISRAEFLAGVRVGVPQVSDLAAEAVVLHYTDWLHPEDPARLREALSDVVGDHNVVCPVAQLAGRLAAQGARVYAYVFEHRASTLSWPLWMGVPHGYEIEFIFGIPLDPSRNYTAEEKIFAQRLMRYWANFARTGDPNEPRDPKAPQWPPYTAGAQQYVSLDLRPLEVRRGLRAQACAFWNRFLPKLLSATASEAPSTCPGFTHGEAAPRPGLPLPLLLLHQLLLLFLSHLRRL

| Structure (SMILES) | ED50 (whole brain AChE) [µmol/kg] | IC50 [1] [µM] | LD50 at 6 h [2] [µmol/kg] | IC50 (MAO-A [3]) [µM] | MAO-A Inhibition Ex vivo ED50 (MAO-A [4]) | MAO-B Inhibition Ex vivo ED50 (MAO-B) | also measured |
| --- | --- | --- | --- | --- | --- | --- | --- |
| CNCCc1cccc(OC(=O)N(C)C)c1 [Compound 3] | 39.2 | 0.31 | 57.7 | 50 | – | – | Time to peak activity t (whole brain AChE; AChE inhibition): 10 min; Time to return to 50% of peak t (whole brain AChE; AChE inhibition): 30 min; selectivity ratio [2]: 1.5 |
| CCN(C)C(=O)Oc1cccc(CCN)c1 [Compound 4] | – | 48.4 | – | 200 | – | – | – |
| C#CC(C)NCCc1cccc(OC(=O)N(C)C)c1 (centres unmarked) [Compound 29] | 2.5 | 0.15 | – | – | >>12.5 µmoles/kg | >>12.5 µmoles/kg | – |
| CN(C)CCc1cccc(OC(=O)N(C)C)c1 [Compound 10] | 2 | 0.2 | 16 | – | – | – | Time to peak activity t (whole brain AChE; AChE inhibition): 15 to 30 min; selectivity ratio [2]: 8; IC50 (MAO-A [3]; read-out: MAO-A Inhibition In vitro IC50, rat brain homogenate, 5-HT 1mM): 51 µM |
| CN(C)C(=O)Oc1cccc(CCN)c1 [Compound 1] | – | 0.31 | – | 100 | – | – | – |
| C#CCNC(C)Cc1cccc(OC(=O)N(C)CCC)c1 (racemic) [Compound 19, (rac)-3-(N-methyl,N-propyl-carbamyloxy)-α-methyl-N'-propargyl phenethylamine HCl] | 170 | 20 | 1300 | 14.6 | >70 µmol/kg | 1.5 µmol/kg | Time to peak activity t (whole brain AChE; AChE inhibition): 30 to 60 min; selectivity ratio [2]: 7.6; Protection (% of control) (mice; 25 mg/kg sc, 60 min before hypoxia): 169±50 % of control; Protection (% of control) (mice; 50 mg/kg sc, 60 min before hypoxia): 309±253 % of control; Protection (% of control) (mice; 75 mg/kg sc, 60 min before hypoxia): 773±228 % of control |
| CCCC(C)C1(CC)C(=O)NC(=O)NC1=O (centres unmarked) [Nembutal, sodium pentobarbital, reference compound] | – | – | – | – | – | – | Protection (% of control) (mice; 40 mg/kg, 30 min before hypoxia): 253±200 % of control |
| C#CCN(C)C(C)Cc1cccc(OC(=O)N(C)C2CCCCC2)c1 (racemic) [Compound 28, (rac)-3-(N-methyl,N-cyclohexyl-carbamyloxy)-α-methyl-N'-methyl, N'-propargyl phenethylamine HCl] | 21 | 11.5 | 2000 | 1.7 | 109 µmol/kg | 1.75 µmol/kg | Time to peak activity t (whole brain AChE; AChE inhibition): 60 min; selectivity ratio [2]: > 47 |
| C#CCN(C)[C@@H](C)Cc1cccc(OC(=O)N(C)CCCCCC)c1 [Compound 38, (S)-3-(N-methyl, N-hexyl-carbamyloxy)-α-methyl-N'-methyl,N'-propargyl phenethylamine ethanesulfonate] | > 50 | 3.1 | – | – | – | – | – |
| CCN(C)C(=O)Oc1cccc(CCNC)c1 [Compound 5] | – | 20.8 | – | 25 | >>160 µmoles/kg | >>160 µmoles/kg | – |
| C#CCN(C)C(C)Cc1cccc(OC(=O)N(C)CCCCCC)c1 (racemic) [Compound 27, (rac)-3-(N-methyl,N-hexyl-carbamyloxy)-α-methyl-N'-methyl, N'-propargyl phenethylamine mesylate] | > 50 | 3.1 | > 1000 | 20 | >430 µmol/kg | 3.4 µmol/kg | – |
| C#CC(C)NCCc1cccc(OC(=O)N(C)CC)c1 (centres unmarked) [Compound 30] | 45 | 14 | – | – | >>270 µmoles/kg | >>270 µmoles/kg | – |
| CN1C(=O)CN=C(c2ccccc2)c2cc(Cl)ccc21 [Diazepam, diazepam, reference compound] | – | – | – | – | – | – | Protection (% of control) (mice; 10 mg/kg, 30 min before hypoxia): 316±78 % of control |
| C#CCNC(C)Cc1cccc(OC(=O)N(C)C2CCCCC2)c1 (centres unmarked) [Compound 36] | > 50 | 3.4 | – | – | – | – | – |
| C#CCN(C)C(C)Cc1cccc(OC(=O)N(C)CCC)c1 (racemic) [Compound 35] | > 200 | 50 | – | – | – | – | – |
